Laboratory results published in PubChem BioAssay (NCI).
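Tested at 5 concentrations; 48 h exposure; 96-well plates; endpoints linearly interpolated, else capped at highest concentration. TGI marks complete inhibition of growth.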

Key:
Assay in all cases: NCI-60 cell line screen, 48 h
KM12 colon = system: KM12 colon
CCRF-CEM leukemia = system: CCRF-CEM leukemia
OVCAR-8 ovarian = system: OVCAR-8 ovarian
UACC-62 melanoma = system: UACC-62 melanoma
786-0 renal = system: 786-0 renal
A549 NSCLC = system: A549 NSCLC
PC-3 prostate = system: PC-3 prostate
SF-539 CNS = system: SF-539 CNS
SK-MEL-2 melanoma = system: SK-MEL-2 melanoma
LOX IMVI melanoma = system: LOX IMVI melanoma
MOLT-4 leukemia = system: MOLT-4 leukemia
HCT-15 colon = system: HCT-15 colon
ACHN renal = system: ACHN renal
NCI/ADR-RES ovarian = system: NCI/ADR-RES ovarian
NCI-H226 lung = system: NCI-H226 lung
SF-295 CNS = system: SF-295 CNS
DU-145 prostate = system: DU-145 prostate
RXF 393 renal = system: RXF 393 renal
OVCAR-3 ovarian = system: OVCAR-3 ovarian
SK-MEL-5 melanoma = system: SK-MEL-5 melanoma
NCI-H522 lung = system: NCI-H522 lung
NCI-H460 lung = system: NCI-H460 lung
SNB-19 CNS = system: SNB-19 CNS
UACC-257 melanoma = system: UACC-257 melanoma
CAKI-1 renal = system: CAKI-1 renal
SN12C renal = system: SN12C renal
BT-549 breast = system: BT-549 breast
HOP-62 NSCLC = system: HOP-62 NSCLC
SK-MEL-28 melanoma = system: SK-MEL-28 melanoma
HCT-116 colon = system: HCT-116 colon
MCF7 breast = system: MCF7 breast
SNB-75 CNS = system: SNB-75 CNS
UO-31 renal = system: UO-31 renal
T-47D breast = system: T-47D breast
MDA-MB-231 breast = system: MDA-MB-231 breast
NCI-H23 lung = system: NCI-H23 lung
TK-10 renal = system: TK-10 renal
OVCAR-5 ovarian = system: OVCAR-5 ovarian
SF-268 CNS = system: SF-268 CNS
SW-620 colon = system: SW-620 colon
COLO 205 colon = system: COLO 205 colon
MALME-3M melanoma = system: MALME-3M melanoma
SR leukemia = system: SR leukemia
OVCAR-4 ovarian = system: OVCAR-4 ovarian
IGROV1 ovarian = system: IGROV1 ovarian
U251 CNS = system: U251 CNS
HS 578T breast = system: HS 578T breast
RPMI-8226 leukemia = system: RPMI-8226 leukemia
SK-OV-3 ovarian = system: SK-OV-3 ovarian
EKVX NSCLC = system: EKVX NSCLC
MDA-N = system: MDA-N
HT29 colon = system: HT29 colon
MDA-MB-435 = system: MDA-MB-435
HOP-92 NSCLC = system: HOP-92 NSCLC
HCC-2998 colon = system: HCC-2998 colon
M14 melanoma = system: M14 melanoma
A498 renal = system: A498 renal
K-562 leukemia = system: K-562 leukemia
HL-60(TB) leukemia = system: HL-60(TB) leukemia

COC1=C(Cl)C(=O)c2c(O)ccc(O)c2C1=O
TGI (KM12 colon): 23.5 µM | TGI (CCRF-CEM leukemia): 0.213 µM | TGI (OVCAR-8 ovarian): 4.78 µM | TGI (UACC-62 melanoma): 4.12 µM | TGI (786-0 renal): 0.864 µM | TGI (A549 NSCLC): 19.3 µM | TGI (PC-3 prostate): 9.17 µM | TGI (SF-539 CNS): 1.53 µM | TGI (SK-MEL-2 melanoma): 3.25 µM | TGI (LOX IMVI melanoma): 3.63 µM | TGI (MOLT-4 leukemia): 0.489 µM | TGI (HCT-15 colon): 3.23 µM | TGI (ACHN renal): 2.31 µM | TGI (NCI/ADR-RES ovarian): 2.32 µM | TGI (NCI-H226 lung): 26.1 µM | TGI (SF-295 CNS): 20.3 µM | TGI (DU-145 prostate): 6.83 µM | TGI (RXF 393 renal): 2.69 µM | TGI (OVCAR-3 ovarian): 1.04 µM | TGI (SK-MEL-5 melanoma): 2.75 µM | TGI (NCI-H522 lung): 0.564 µM | TGI (NCI-H460 lung): 24.4 µM | TGI (SNB-19 CNS): 17.1 µM | TGI (UACC-257 melanoma): 3.41 µM | TGI (CAKI-1 renal): 1.6 µM | TGI (SN12C renal): 2.74 µM | TGI (BT-549 breast): 3.31 µM | TGI (HOP-62 NSCLC): 2.31 µM | TGI (SK-MEL-28 melanoma): 6.73 µM | TGI (HCT-116 colon): 1.34 µM | TGI (MCF7 breast): 3.29 µM | TGI (SNB-75 CNS): 17.1 µM | TGI (UO-31 renal): 3.71 µM | TGI (T-47D breast): 3.61 µM | TGI (MDA-MB-231 breast): 3.19 µM | TGI (NCI-H23 lung): 4.62 µM | TGI (TK-10 renal): 2.4 µM | TGI (OVCAR-5 ovarian): 7.49 µM | TGI (SF-268 CNS): 6.25 µM | TGI (SW-620 colon): 0.46 µM | TGI (COLO 205 colon): 0.53 µM | TGI (MALME-3M melanoma): 1.1 µM | TGI (SR leukemia): 1.3 µM | TGI (OVCAR-4 ovarian): 3.66 µM | TGI (IGROV1 ovarian): 3.72 µM | TGI (U251 CNS): 11.9 µM | TGI (HS 578T breast): 4.96 µM | TGI (RPMI-8226 leukemia): 1.45 µM | TGI (SK-OV-3 ovarian): 29.4 µM | TGI (EKVX NSCLC): 10.6 µM | TGI (MDA-N): 4.8 µM | TGI (HT29 colon): 11.8 µM | TGI (MDA-MB-435): 3.13 µM | TGI (HOP-92 NSCLC): 3.61 µM | TGI (HCC-2998 colon): 27.3 µM | TGI (M14 melanoma): 1.28 µM | TGI (A498 renal): 2.63 µM

CC(=O)O[C@H]1C(=O)[C@@]2(C)[C@H]([C@H](OC(=O)c3ccccc3)[C@]3(O)C[C@H](OC(=O)[C@H](O)[C@@H](NC(=O)c4ccccc4)c4cccc(N(C)C)c4)C(C)=C1C3(C)C)[C@]1(OC(C)=O)CO[C@@H]1C[C@@H]2O
TGI (KM12 colon): > 24.7 µM | TGI (OVCAR-8 ovarian): > 27.4 µM | TGI (UACC-62 melanoma): > 50.2 µM | TGI (786-0 renal): 13.3 µM | TGI (A549 NSCLC): > 75 µM | TGI (PC-3 prostate): 12.4 µM | TGI (SF-539 CNS): 1.08 µM | TGI (SK-MEL-2 melanoma): > 75 µM | TGI (LOX IMVI melanoma): > 75 µM | TGI (HCT-15 colon): 74.5 µM | TGI (ACHN renal): > 16.4 µM | TGI (K-562 leukemia): > 75 µM | TGI (NCI/ADR-RES ovarian): > 62.5 µM | TGI (NCI-H226 lung): 29 µM | TGI (SF-295 CNS): 1.14 µM | TGI (DU-145 prostate): 1.58 µM | TGI (RXF 393 renal): 1.24 µM | TGI (OVCAR-3 ovarian): 0.586 µM | TGI (HL-60(TB) leukemia): 0.0414 µM | TGI (SK-MEL-5 melanoma): 11.3 µM | TGI (NCI-H522 lung): 3.69 µM | TGI (NCI-H460 lung): 27.5 µM | TGI (SNB-19 CNS): > 41.9 µM | TGI (UACC-257 melanoma): > 75 µM | TGI (CAKI-1 renal): > 75 µM | TGI (SN12C renal): > 75 µM | TGI (BT-549 breast): 3.51 µM | TGI (HOP-62 NSCLC): > 18.3 µM | TGI (SK-MEL-28 melanoma): > 75 µM | TGI (HCT-116 colon): > 61.4 µM | TGI (MCF7 breast): > 55.2 µM | TGI (SNB-75 CNS): > 36.1 µM | TGI (UO-31 renal): > 64.6 µM | TGI (T-47D breast): 30.7 µM | TGI (MDA-MB-231 breast): 36.1 µM | TGI (NCI-H23 lung): > 75 µM | TGI (TK-10 renal): > 60 µM | TGI (OVCAR-5 ovarian): > 15.8 µM | TGI (SF-268 CNS): > 75 µM | TGI (SW-620 colon): > 75 µM | TGI (COLO 205 colon): 0.285 µM | TGI (MALME-3M melanoma): > 67.1 µM | TGI (SR leukemia): 9.71 µM | TGI (OVCAR-4 ovarian): > 43.6 µM | TGI (IGROV1 ovarian): > 75 µM | TGI (U251 CNS): > 27 µM | TGI (HS 578T breast): 0.603 µM | TGI (RPMI-8226 leukemia): 0.236 µM | TGI (SK-OV-3 ovarian): > 28.6 µM | TGI (EKVX NSCLC): > 75 µM | TGI (MDA-N): 0.0238 µM | TGI (HT29 colon): > 32.9 µM | TGI (MDA-MB-435): 0.0388 µM | TGI (HOP-92 NSCLC): > 75 µM | TGI (A498 renal): 9.02 µM

Cc1ccc(NC(=O)/C(Cc2cc(=O)oc3cc(O)ccc23)=N\NC(C)(C)C)cc1C
TGI (KM12 colon): > 100 µM | TGI (CCRF-CEM leukemia): > 100 µM | TGI (OVCAR-8 ovarian): > 100 µM | TGI (UACC-62 melanoma): > 100 µM | TGI (786-0 renal): > 100 µM | TGI (A549 NSCLC): > 100 µM | TGI (PC-3 prostate): > 100 µM | TGI (SF-539 CNS): > 100 µM | TGI (SK-MEL-2 melanoma): > 100 µM | TGI (LOX IMVI melanoma): > 100 µM | TGI (MOLT-4 leukemia): > 100 µM | TGI (HCT-15 colon): > 100 µM | TGI (ACHN renal): > 100 µM | TGI (K-562 leukemia): > 100 µM | TGI (NCI/ADR-RES ovarian): > 100 µM | TGI (NCI-H226 lung): > 100 µM | TGI (SF-295 CNS): > 100 µM | TGI (DU-145 prostate): > 100 µM | TGI (RXF 393 renal): > 100 µM | TGI (OVCAR-3 ovarian): > 100 µM | TGI (HL-60(TB) leukemia): > 100 µM | TGI (SK-MEL-5 melanoma): > 100 µM | TGI (NCI-H460 lung): > 100 µM | TGI (SNB-19 CNS): > 100 µM | TGI (UACC-257 melanoma): > 100 µM | TGI (CAKI-1 renal): > 100 µM | TGI (SN12C renal): > 100 µM | TGI (BT-549 breast): > 100 µM | TGI (SK-MEL-28 melanoma): > 100 µM | TGI (HCT-116 colon): > 100 µM | TGI (MCF7 breast): > 100 µM | TGI (UO-31 renal): > 100 µM | TGI (T-47D breast): > 100 µM | TGI (MDA-MB-231 breast): > 100 µM | TGI (NCI-H23 lung): > 100 µM | TGI (SF-268 CNS): > 100 µM | TGI (SW-620 colon): > 100 µM | TGI (COLO 205 colon): > 100 µM | TGI (SR leukemia): > 100 µM | TGI (OVCAR-4 ovarian): > 100 µM | TGI (U251 CNS): > 100 µM | TGI (HS 578T breast): > 100 µM | TGI (RPMI-8226 leukemia): > 100 µM | TGI (SK-OV-3 ovarian): > 100 µM | TGI (MDA-N): > 100 µM | TGI (HT29 colon): > 100 µM | TGI (MDA-MB-435): > 100 µM | TGI (HOP-92 NSCLC): > 100 µM | TGI (HCC-2998 colon): > 100 µM | TGI (M14 melanoma): > 100 µM | TGI (A498 renal): > 100 µM
